Measurements: patent US20250282746A1, “HALOGEN-SUBSTITUTED ISOINDOLINE COMPOUND AND USE THEREOF” (CHENGDU FENDI PHARMACEUTICAL CO., LTD., priority 2022, published 2025)
Like-named read-outs stand apart in the source and are kept apart here.

Key:
MV-4-11 cells = experiment: Antiproliferative activity against MV-4-11 cells (CellTiter-Glo, 72 h); type: cell-based; settings: Homo sapiens
In short: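 MV-4-11 cells in RPMI + 10% FBS plated at 5,000 cells/well and pre-incubated 24 h at 37 °C, 5% CO2. Compounds were then added (final DMSO 0.2%) and cells incubated 72 h. Viability was read by CellTiter-Glo luminescence after 30 min equilibration at room temperature.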

NCI-H929 cells = experiment: Antiproliferative effect alone and in combination with dexamethasone against NCI-H929 cells; type: cell-based; settings: for IC50: Homo sapiens, NCI-H929, 72 h, 72 h
Method: (§1) MOLM-13 cells in the logarithmic growth phase were diluted in a medium RPMI+[…], and NCI-H929 cells were diluted in a medium RPMI+10% FBS. The cells were plated at 4,000 cells/well in 96-well whole black plates (WHB) with 50 μL/well. After plating, the plates were incubated in an incubator at 5% CO2 and 37° C. for 24 h before the compounds were added. The compounds were prepared into a 10 mM stock solution in DMSO and diluted in a culture medium to the desired concentrations (a final DMSO concentration of 0.2%). 50 μL of the compound dilutions at final concentrations of 10,000, 3,333.33, 1,111.11, 370.37, 123.46, 41.15, 13.72, 4.57, 1.52, and 0 nM were added to the 96-well plates containing the cells, that is, each compound was serially diluted to 10 concentrations in duplicate. The plates were incubated at 5% CO2 and 37° C. for 72 h. When pharmaceutical partners were used, the concentrations of azacitidine and dexamethasone were kept at 200 nM and 500 nM respectively, and the compounds were serially three-fold diluted from 10,000 nM. After the incubation was complete, the plates were equilibrated at room temperature for 30 min. CellTiter-Glo® Reagent (Promega G7573) was added at 100 μL/well. The plates were shaken for 12 min on a microplate shaker. The luminescence value was measured at room temperature by the GloMax navigator (Promega GM2010). The IC50 values were calculated using the GraphPad Prism 7 software with the 0 nM control group as 0% inhibition.

MV-4-11-Luc xenograft = experiment: Efficacy in acute myeloid leukemia MV-4-11-luc xenograft mouse model; type: in vivo; settings: 10 mg/kg orally twice daily, NSG mice
Excerpt: In an in vivo efficacy study, female immunocompromised NSG mice aged 6 to 8 weeks were used and the experimental procedures started after the animals were acclimatized in the experimental environment for 7 days. The animals were housed in SPF animal rooms in individually ventilated cages (IVCs) each containing 6 mice. Human acute myeloid leukemia MV-4-11 cells expressing luciferase (MV-4-11-luc) were grafted into mice by tail vein injection (5×10^6 cells/mouse). Seven days after the cell grafting, the mice were subjected to imaging on the IVIS Lumina III small animal imaging system for grouping and administration, and tumor-bearing mice were randomized to the vehicle control group or treatment groups (6 mice/group). The compound (10 mg/kg, twice daily) was administered to the animals in each treatment group by oral gavage. The body weight was measured daily, while mean luminescence was measured after the start of treatment with the compounds or vehicle.
Indicators: The indicators were to investigate whether the tumor growth was inhibited or delayed or the tumor was cured. The tumor size was measured twice weekly using the IVIS Lumina III small animal imaging system. The tumor signals were determined by exposure photons per second. The anti-tumor efficacy of the compounds was evaluated by the tumor proliferation rate T/C (%). T/C %=TRTV/CRTV×100% (TRTV: the RTV of the treatment group; CRTV: the RTV of negative control group; RTV=Vt/V0, where V0 is the tumor signal measured at the time of grouping and administration (i.e., day 0), and Vt is the tumor signal at every measurement). According to the guidelines of the Center for Drug Evaluation, NMPA, a T/C (%) of >40% denotes the absence of efficacy, while a T/C of <40% with P<0.05 denotes the presence of efficacy.

MOLM-13 cells = experiment: Antiproliferative effect alone and in combination with azacitidine against MOLM-13 cells; type: cell-based; settings: MOLM-13 cells; for IC50: Homo sapiens, MOLM-13, 72 h, 72 h
Method: as §1

Structure (SMILES)	IC50 (MV-4-11 cells; MV4-11, 72 h, read-out: Antiproliferative activity IC50) [nM]	IC50 (MV-4-11 cells; MV4-11, read-out: IC50 against MV-4-11 cell proliferation) [nM]	increase of antiproliferative activity IC50 when combined with 500 nM dexamethasone (NCI-H929 cells)	IC50 (NCI-H929 cells; compound alone) [nM]	IC50 (NCI-H929 cells; in combination with 500 nM dexamethasone) [nM]	T/C (%) Day 3 (MV-4-11-Luc xenograft) [%]	T/C (%) Day 7 (MV-4-11-Luc xenograft) [%]	T/C (%) Day 10 (MV-4-11-Luc xenograft) [%]	T/C (%) Day 14 (MV-4-11-Luc xenograft) [%]	IC50 (MV-4-11 cells; MV4-11, MV-4-11 cells, 72 h, read-out: Antiproliferative activity IC50) [nM]	IC50 (MOLM-13 cells; compound alone) [nM]	IC50 (MOLM-13 cells; in combination with 200 nM azacitidine) [nM]	activity relative to CC-90009, alone or in combination with azacitidine (MOLM-13 cells)	increase of antiproliferative activity IC50 when combined with 200 nM azacitidine (MOLM-13 cells)
O=C1CCC(N2Cc3c(ccc(CNC(=O)c4ccc(Cl)cc4)c3F)C2=O)C(=O)N1 (stereo not drawn) [FDAB-48]	10 to 100	10.8	about 6 folds	14.3	2.45	0.95	0.22	0.10	0.05					
Cc1ccc(C(=O)NCc2ccc3c(c2F)CN(C2CCC(=O)NC2=O)C3=O)c(F)c1 (stereo not drawn) [FDAB-121]						0.32	0.06	0.02	0.00	1 to 10	248	9.68	about 5 folds	about 25 folds
